B1: RELA K5Q: RELA mutant converting five lysine residues (K122, K123, K310, K314, K315) to glutamine, acetylation mimic (protein, UniProt Q04206 1-551, looked up, variant K122Q K123Q K310Q K314Q K315Q)
Transcription factor p65: MDELFPLIFPAEPAQASGPYVEIIEQPKQRGMRFRYKCEGRSAGSIPGERSTDTTKTHPTIKINGYTGPGTVRISLVTKDPPHRPHPHELVGKDCRDGFYEAELCPDRCIHSFQNLGIQCVQQRDLEQAISQRIQTNNNPFQVPIEEQRGDYDLNAVRLCFQVTVRDPSGRPLRLPPVLSHPIFDNRAPNTAELKICRVNRNSGSCLGGDEIFLLCDKVQKEDIEVYFTGPGWEARGSFSQADVHRQVAIVFRTPPYADPSLQAPVRVSMQLRRPSDRELSEPMEFQYLPDTDDRHRIEEKRKRTYETFQSIMQQSPFSGPTDPRPPPRRIAVPSRSSASVPKPAPQPYPFTSSLSTINYDEFPTMVFPSGQISQASALAPAPPQVLPQAPAPAPAPAMVSALAQAPAPVPVLAPGPPQAVAPPAPKPTQAGEGTLSEALLQLQFDDEDLGALLGNSTDPAVFTDLASVDNSEFQQLLNQGIPVAPHTTEPMLMEYPEAITRLVTGAQRPPDPAPAPLGAPGLPNGLLSGDEDFSSIADMDFSALLSQISS

How the values were obtained:
Format in all cases: cell-based, human
[1] = test system: STING, TBK1, IRF3, RELA, IRF7; assay: Western blot of key signaling proteins involved in STING signaling; details: for cGAMP-mediated STING signaling: CD4+ T cells treated with TSA or 5AZA, FIG. 3E; for endogenous RELA expression: overexpression in CD4+ T cells and MDDC, FIG. 2C
Experimental: 0.5 million cells were lysed for 30 minutes on ice in 50 μl RIPA buffer (50 mM Tris HCl, 150 mM NaCl, 0.1% SDS, 0.5% DOC, 1% NP-40) with Protease inhibitor (Roche #1187358001). To evaluate, phospho-proteins 50 mM NaF and 1 mM sodium orthovanadate were added to the lysis buffer. Protein lysates were cleared by centrifugation at 12,000 g for 10 to 12 minutes at 4° C. 10 μl of 6× Laemmli buffer (fisher scientific #J61337) was added to 50 μl protein lysates and samples were boiled at 95° C. for 15 minutes. Protein samples were resolved on 4%-20% Biorad precast SDS-PAGE gels (#5671125) and transferred onto PVDF membranes (BioRad #1704157). Membranes were blocked in 5% non-fat dry milk in PBS 0.1% tween or in TBS 5% BSA 0.1% Tween to detect phosphorylated proteins. Primary antibodies were used at 1:1000:phospho-STING (clone-D7C3S), STING (clone-D2P2F), serine 172 phospho-TBK1 (clone-D52C2), TBK1 (clone-D11B4), serine 396 phospho IRF3 (clone-D6O1M), IRF3 (clone-D83B9), RELA (clone-C22B4), IRF7 (clone-12G9A36), cGAS (clone-D1 D3G), Actin (clone-C4), Sendai viral proteins (Biozol #MBL-PD029). Secondary anti-rabbit or anti-mouse antibody were used at 1:10,000 (santa cruz #sc-2357, #sc-516102). ECL signal (Biorad #1705061 and #1705062) was recorded on a ChemiDoc Touch Biorad Imager. Data was analyzed and quantified with Image Lab software (Biorad). In figures, dotted lines indicate reordering of lanes from a single original membrane for visualization purpose.

CD4+ T cells [2] = assay: IFN-I/III quantification (LEGENDplex) in CD4+ T cells, baseline or after STING stimulation; details: for IFNλ1 response to cGAMP under epigenetic inhibitor: CD4+ T cells, TSA 100 nM or 5AZA 2 μM, FIG. 3D; for IFNλ1 after cGAMP stimulation: 2D, 2F
Experimental: (§1) Plasmapheresis blood pockets were obtained from healthy adult volunteers after informed consent from the EFS (Establishment of French blood collection). Peripheral blood mononuclear cells (PBMCs) were isolated using Ficoll-Paque Plus (GE-17144003) and left overnight at 4° C. in RPMI (Thermo fischer #61870-010) with 10% heat-decomplemented fetal bovine serum (FBS, Eurobio #CVFSVFO0-01). CD14+ cells were enriched by positive selection (Miltenyi #130-050-201), the CD14 negative fraction was subsequently used to isolate total CD4+ T cells by negative selection (Stem Cell #17952). CD14+ cells were cultured in RPMI containing 10% FBS, 5% Penicillin-Streptomycin (PS, Thermo Fisher #10378-016), 50 μg/ml Gentamicin (Thermo Fisher #15750-045) and 10 mM HEPES (Thermo Fisher #15630-056). CD14+ cells were differentiated ex vivo into MDDC by supplementing the culture media with 50 ng/ml IL-4 (Miltenyi #130-093-922) and 10 ng/ml GM-CSF (Miltenyi #130-093-867). MDDC were used for experiments 3 or 4 days following the start of the culture. CD14+ cells were differentiated ex vivo into macrophages by adding 50 ng/ml MCSF (Miltenyi #130-096-492) to the culture media containing RPMI with 1% PS, 5% FBS and 5% human serum (Sigma #H4522). MDM were used 7 days following culture. Freshly isolated CD4+ T cells were cultured in X-VIVO 15 (Lonza #BE02-060F) and activated using anti-CD3 and anti-CD28 Dynabeads (fisher scientific #10548353) at the ratio of 1:5 (bead:cell). 100 U/ml human IL-2 (Immunotools #11340027) was added to cultures 2 days following TCR stimulation and media with IL-2 was replenished every 48 hours. To assess proliferation, freshly isolated CD4+ T cells were stained with cell proliferation dye (thermo fischer #65-0840-85) prior to TCR stimulation.
(§2) CD14+ cells were plated at 1 million cells/ml and transduced with equal volumes of freshly harvested SIV-VLPs and pTRIP-SFFV vectors in the presence of 8 μg/ml protamine (Sigma #P4020). CD4+ T cells were transduced with lentivectors 24 hours post-TCR stimulation in 100 μl of cells (0.2 million cells) and 100 μl of freshly harvested lentivirus in the presence of 8 μg/ml protamine. T cells were spinoculated at 1200 g for 2 hours at 25° C. 0.5 million THP-1 cells in 500 μl media (RPMI 10% FBS 1% PS) were transduced with 500 μl freshly harvested lentivirus in the presence of 8 μg/ml protamine. 1 μg/ml Puromycin (Invivogen #ant-pr-1) was added 2 days post-transduction when cells were transduced with pLKO.1-puro plasmid.
For stimulation of STING by extracellular ligands, 2.5 μg of ADUS100 (invivogen #tlrl-nacda2r-01) or 2′3′-cGAMP (cGAMP, invivogen #tlrl-nacga23-02) was added to 100,000 cells in 100 μl media either on freshly isolated primary cells or 3-4 days post differentiation for MDDC and 3 days post-TCR stimulation for CD4+ T cells. Cells and supernatant were harvested 18-24 hours post stimulation. For delivery of STING ligands after permeabilization, T cells were used 3 or 4 days post TCR stimulation and MDDC were used 3-4 days following differentiation. 150,000 cells were plated in round bottom 96-well plate. Media was removed by centrifugation and 20 μl 2× permeabilization buffer (100 mM HEPES, 200 mM KCl, 6 mM MgCl2, 0.2 mM DTT, 170 mM Sucrose, 2 mM ATP, 2 mM GTP, 0.4% bovine serum albumin (BSA), 20 μg/ml digitonin) and 20 μl cGAMP (12 μg/ml) was added to cells. 18 to 20 hours following stimulation supernatants and cells were harvested. Cells were stained with a fixable viability dye (Invitrogen #65-0865-14) and acquired on a FACSVerse (BD). […]
Where indicated, cells were treated with 5-Azacytidine (5AZA, Sigma #A2385) 48 hours prior to cGAMP stimulation. Fresh 5AZA was added daily to cells, and media was replenished with 5AZA following cGAMP stimulation. 100 nM Trichostatin A (TSA) (sigma #T1952) was added to cells following cGAMP stimulation and left overnight. […]

MDDC = assay: IFN-I/III quantification (LEGENDplex) in MDDC after STING stimulation; details: lentivector overexpression in MDDC, cGAMP 6 μg/ml; for IFN-I/III response to cGAMP compared to the control condition: FIG. 2D
Experimental: as §1, §2
For stimulation of STING by extracellular ligands, 2.5 μg of ADUS100 (invivogen #tlrl-nacda2r-01) or 2′3′-cGAMP (cGAMP, invivogen #tlrl-nacga23-02) was added to 100,000 cells in 100 μl media either on freshly isolated primary cells or 3-4 days post differentiation for MDDC and 3 days post-TCR stimulation for CD4+ T cells. Cells and supernatant were harvested 18-24 hours post stimulation. For delivery of STING ligands after permeabilization, T cells were used 3 or 4 days post TCR stimulation and MDDC were used 3-4 days following differentiation. 150,000 cells were plated in round bottom 96-well plate. Media was removed by centrifugation and 20 μl 2× permeabilization buffer (100 mM HEPES, 200 mM KCl, 6 mM MgCl2, 0.2 mM DTT, 170 mM Sucrose, 2 mM ATP, 2 mM GTP, 0.4% bovine serum albumin (BSA), 20 μg/ml digitonin) and 20 μl cGAMP (12 μg/ml) was added to cells. 18 to 20 hours following stimulation supernatants and cells were harvested. Cells were stained with a fixable viability dye (Invitrogen #65-0865-14) and acquired on a FACSVerse (BD).
For experiments with conditioned media, CD4+ T cell- and MDDC-conditioned media refer to […] filtered conditioned media from cultures of activated CD4+ T cell and MDDC, respectively. CD4+ T cells were pretreated with 100 μl of MDDC-conditioned media or of fresh MDDC culture media, 24 hours prior to cGAMP stimulation. […]

CD4+ T cells [3] = assay: Bulk RNAseq of activated CD4+ T cells after cGAMP; details: five hours after cGAMP 6 μg/ml
Experimental: Five hours following cGAMP (6 μg/ml) stimulation of activated CD4+ T cells, total RNA was extracted (Macherey-Nagel #740955.50). […] RNA sequencing libraries were prepared from 500 ng of total RNA using the Illumina TruSeq Stranded mRNA Library preparation kit. A first step of polyA selection using magnetic beads was performed to focus sequencing on polyadenylated transcripts. After fragmentation, cDNA synthesis was performed and resulting fragments were used for dA-tailing and ligated to the TruSeq indexed adapters. PCR amplification was performed to create the final cDNA library (with 13 cycles). After quantification of PCR products, sequencing was carried out using 2*100 cycles (paired-end reads, 100 nucleotides) on a Novaseq6000 instrument, targeting 25M clusters. The data was aligned to the hg19 (ENSEMBL annotation: v.74) genome using the RNA-seq pipeline of the Curie bioinformatics platform, rnaseq v3.1.1. Reads were trimmed with TrimGalore (v.0.6.2) and aligned on the reference genome using STAR (v 2.6.1) ^71. Quality control was done with picard (v.2.18.15), RSeQC (v.2.6.4) and preseq (v.2.0.3)^72. Read counts were generated with STAR. Quality reports were generated with MultiQC (v.1.7). […]

[4] = lentivector overexpression in CD4+ T cells, FIG. 2B

| Molecule | cGAMP-mediated STING signaling [1] | IFNλ1 response to cGAMP under epigenetic inhibitor (CD4+ T cells [2]) | IFN-I/III response to cGAMP compared to the control condition (MDDC) | endogenous RELA expression [1] | IFNλ1 after cGAMP stimulation (CD4+ T cells [2]; [4]) | also measured |
| --- | --- | --- | --- | --- | --- | --- |
| CC(/C=C/C(=O)NO)=C\[C@@H](C)C(=O)c1ccc(N(C)C)cc1 [TSA, Trichostatin A, reference compound] | intact | reduced the already low IFNλ1 production | – | – | – | IFN expression at baseline with RELA K5R and after cGAMP stimulation (CD4+ T cells [2]; CD4+ T cells treated with TSA): inhibits IFN expression |
| Nc1ncn([C@@H]2O[C@H](CO)[C@@H](O)[C@H]2O)c(=O)n1 [5AZA, 5-Azacytidine, reference compound] | did not occur through detectable increase | enhanced the IFNλ1 response to cGAMP | – | – | – | – |
| RELA: wild type human RELA protein (transcription factor p65, Uniprot Q04206), overexpressed from lentivector [reference compound] | – | – | remained unchanged | no impact | tendency for increased IFNλ1 | IFN-I/III response to cGAMP, RNA and protein levels (MDDC; FIG. 2B): did not significantly enhance; IFN-I/III response to cGAMP, RNA and protein levels (CD4+ T cells [2]; lentivector overexpression in CD4+ T cells, cGAMP 6 μg/ml, FIG. 2B): did not significantly enhance |
| Nc1nc2c(ncn2[C@@H]2O[C@@H]3COP(=O)(O)O[C@H]4[C@@H](O)[C@H](n5cnc6c(N)ncnc65)O[C@@H]4COP(=O)(O)O[C@@H]2[C@@H]3O)c(=O)[nH]1 [cGAMP, 2′3′-cGAMP, reference compound] | – | – | – | – | – | phosphorylated levels of STING, TBK1 and IRF3, CD4+ T cells versus MDDC ([1]; 6 hours after cGAMP 6 μg/ml, FIG. 1G): identical; IRF7 expression (RNAseq) (CD4+ T cells [3]): induced; IFNβ protein (CD4+ T cells [2]; cGAMP delivered by digitonin-mediated membrane permeabilization, FIG. 1F): undetectable; IFN response to STING ligands (CD4+ T cells [2]; resting blood CD4+ T cells, soluble ligand 1 μg or 2.5 μg, FIG. 1B): undetectable |
| B1 | – | – | remained unchanged | no impact | abrogated | – |

Reference: patent US20250213614A1, “Modified RELA Protein for Inducing Interferon Expression and Engineered Immune Cells with Improved Interferon Expression” (Institut Curie, priority 2022, published 2025)
